Several values for one entry are separate records, joined by “and”; a condition that tells them apart may be missing. Equal values may be shown once. Toxic doses and inconclusive results are not listed. The calls were made as follows: active = survival T/C of 150% or more; inactive = T/C below 125% in these data.
System: P388 leukemia ip, CD2F1 mice, survival T/C
Test: NCI In Vivo Anticancer Drug Screen. Data for tumor model P388 Leukemia (intraperitoneal) in CD2F1 (CDF1) mice
Details: endpoint: median survival time, higher = longer survival
In short: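 Mice carrying the transplanted tumor received test compound or vehicle. Survival was recorded in each group, and the value is the treated-group measurement divided by that of the vehicle-treated control group.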

[1] = dose: 50.0 mg/kg/injection, schedule: Q01DX005 (ip), vehicle: Klucel (hydroxypropylcellulose) (HPC)
[2] = dose: 100.0 mg/kg/injection, schedule: Q01DX005 (ip), vehicle: Klucel (hydroxypropylcellulose) (HPC)
[3] = dose: 50.0 mg/kg/injection, schedule: Q04DX002 (ip), vehicle: saline with Tween-80
[4] = dose: 25.0 mg/kg/injection, schedule: Q01DX009 (ip), vehicle: saline with Tween-80
[5] = dose: 50.0 mg/kg/injection, schedule: Q01DX009 (ip), vehicle: saline with Tween-80
[6] = dose: 100.0 mg/kg/injection, schedule: Q01DX009 (ip), vehicle: saline with Tween-80
[7] = dose: 200.0 mg/kg/injection, schedule: Q01DX009 (ip), vehicle: saline with Tween-80

Measured: T/C

O=C(O)CCC(NC(=O)c1ccc(N(CCCO)CC2CNc3nc(NCCCO)[nH]c(=O)c3N2CCCO)cc1)C(=O)O (stereo not given)
inactive: dose: 50.0 mg/kg/injection, schedule: Q04DX003 (ip), vehicle: alkali diluted with saline 98 % of control | dose: 100.0 mg/kg/injection, schedule: Q04DX003 (ip), vehicle: alkali diluted with saline 109 % of control | dose: 200.0 mg/kg/injection, schedule: Q04DX003 (ip), vehicle: alkali diluted with saline 98 % of control

COC1OCN(C(C)(C)C)CC1(C)C (stereo not given)
inactive: dose: 15.0 mg/kg/injection, schedule: Q01DX009 (ip), vehicle: saline with Tween-80 95 % of control | dose: 30.0 mg/kg/injection, schedule: Q01DX009 (ip), vehicle: saline with Tween-80 102 % of control | dose: 60.0 mg/kg/injection, schedule: Q01DX009 (ip), vehicle: saline with Tween-80 121 % of control

CC(C)OC(=O)NP1(=O)NCc2ccccc2CN1
inactive: [1] 101 % of control | [2] 103 % of control | dose: 200.0 mg/kg/injection, schedule: Q01DX005 (ip), vehicle: Klucel (hydroxypropylcellulose) (HPC) 94 % of control

N#CC1CC2(CCC1=O)c1ccccc1-c1ccccc12 (stereo not given)
inactive: dose: 25.0 mg/kg/injection, schedule: Q04DX002 (ip), vehicle: saline with Tween-80 92 % of control | [3] 98 % of control

Cc1no[n+]([O-])c1C(=O)NN
inactive: dose: 60.0 mg/kg/injection, schedule: Q01DX005 (ip), vehicle: Klucel (hydroxypropylcellulose) (HPC) 103 % of control | dose: 120.0 mg/kg/injection, schedule: Q01DX005 (ip), vehicle: Klucel (hydroxypropylcellulose) (HPC) 94 % of control | dose: 240.0 mg/kg/injection, schedule: Q01DX005 (ip), vehicle: Klucel (hydroxypropylcellulose) (HPC) 100 % of control

CCC1OC(=O)C2C(c3ccccc3)=NOC2[C@H]1C (stereo not given in full)
inactive: dose: 60.0 mg/kg/injection, schedule: Q01DX005 (ip), vehicle: saline with Tween-80 102 % of control | dose: 120.0 mg/kg/injection, schedule: Q01DX005 (ip), vehicle: saline with Tween-80 101 % of control | dose: 240.0 mg/kg/injection, schedule: Q01DX005 (ip), vehicle: saline with Tween-80 94 % of control

O=c1[nH]c(=O)n2ncnc2[nH]1
inactive: [4] 91 % of control | dose: 50.0 mg/kg/injection, schedule: Q01DX005 (ip), vehicle: saline with Tween-80 95 % of control | [5] 95 % of control | dose: 100.0 mg/kg/injection, schedule: Q01DX005 (ip), vehicle: saline with Tween-80 95 % of control | [6] 99 % of control | dose: 200.0 mg/kg/injection, schedule: Q01DX005 (ip), vehicle: saline with Tween-80 105 % of control | [7] 91 % of control

O=C1C(Cl)=C(NCCCN(CCO)CCO)C(=O)c2ccccc21
inactive: dose: 12.5 mg/kg/injection, schedule: Q01DX009 (ip), vehicle: saline 100 % of control | dose: 25.0 mg/kg/injection, schedule: Q01DX009 (ip), vehicle: saline 107 % of control and 88 % of control | dose: 50.0 mg/kg/injection, schedule: Q01DX009 (ip), vehicle: saline 107 % of control and 108 % of control

CCCCCCCCCCCCN(C)C
inactive: dose: 12.5 mg/kg/injection, schedule: Q01DX009 (ip), vehicle: saline with Tween-80 100 % of control | [4] 100 % of control | [5] 100 % of control

CC1CCC(C(=O)C(Cl)C(Cl)C2CCCCC2)CC1 (stereo not given)
inactive: [1] 92 % of control | [2] 92 % of control

CC(NC(=O)C(NC(=O)c1ccc[n+](Cc2ccccc2)c1)C(C)C)C(N)=O (stereo not given)
inactive: dose: 7.5 mg/kg/injection, schedule: Q01DX005 (ip), vehicle: saline 109 % of control | dose: 15.0 mg/kg/injection, schedule: Q01DX005 (ip), vehicle: saline 104 % of control | dose: 30.0 mg/kg/injection, schedule: Q01DX005 (ip), vehicle: saline 98 % of control

[Mn+2].[O-]c1ccccc1/C=N/c1ccccn1.[O-]c1ccccc1/C=N/c1ccccn1.[OH3+].[OH3+]
inactive: [3] 97 % of control | dose: 100.0 mg/kg/injection, schedule: Q04DX002 (ip), vehicle: saline with Tween-80 96 % of control | dose: 200.0 mg/kg/injection, schedule: Q04DX002 (ip), vehicle: saline with Tween-80 94 % of control

O=S(=O)(SC(S(=O)(=O)C12CC3CC(CC(C3)C1)C2)S(=O)(=O)C12CC3CC(CC(C3)C1)C2)C12CC3CC(CC(C3)C1)C2 (stereo not given)
inactive: [5] 95 % of control | [6] 105 % of control | [7] 95 % of control

CS(=O)(=O)OC1COCOC1C1OCOCC1OS(C)(=O)=O (stereo not given)
inactive: dose: 12.5 mg/kg/injection, schedule: Q01DX009 (ip), vehicle: Klucel (hydroxypropylcellulose) (HPC) 91 % of control | dose: 25.0 mg/kg/injection, schedule: Q01DX009 (ip), vehicle: Klucel (hydroxypropylcellulose) (HPC) 92 % of control | dose: 50.0 mg/kg/injection, schedule: Q01DX009 (ip), vehicle: Klucel (hydroxypropylcellulose) (HPC) 95 % of control | dose: 200.0 mg/kg/injection, schedule: Q01DX009 (ip), vehicle: Klucel (hydroxypropylcellulose) (HPC) 102 % of control

From PubChem BioAssay AID330 (DTP/NCI, 2004)
